A short description of this data set: activity coefficient (dimensionless); of the first substance listed, at infinite dilution; xn = mol fraction of the nth substance listed. The following applies: 101.33 kPa, Liquid, Chromatography, x1 = 0.

Numbers after ± are expanded uncertainties.

Consider `CC(C)=O` [acetone] + CCCCCCCCCCCC[N+](C)(C)CCOc1ccccc1.N#C[N-]C#N, for which the activity coefficient came to 0.721 ± 0.048 (328.15 K); 0.745 ± 0.049 (338.15 K); 0.767 ± 0.05 (348.15 K); 0.791 ± 0.051 (358.15 K); 0.813 ± 0.053 (368.15 K); 0.834 ± 0.054 (378.15 K).

For `CC(C)=O` [acetone] + CCCCCCCCCCCC[N+](C)(C)CCOc1ccccc1.O=S(=O)([N-]S(=O)(=O)C(F)(F)F)C(F)(F)F, the activity coefficient was 0.331 ± 0.032 (318.15 K); 0.353 ± 0.032 (328.15 K); 0.375 ± 0.033 (338.15 K); 0.398 ± 0.034 (348.15 K); 0.421 ± 0.035 (358.15 K); 0.445 ± 0.036 (368.15 K).

Consider `CC#N` [acetonitrile] + CCCCCCCCCCCC[N+](C)(C)CCOc1ccccc1.N#C[N-]C#N, for which the activity coefficient (328.15 K) amounted to 0.756 ± 0.05; the activity coefficient (338.15 K) came out at 0.766 ± 0.05; the activity coefficient (348.15 K) stood at 0.775 ± 0.051; the activity coefficient (358.15 K) was determined as 0.785 ± 0.051; the activity coefficient (368.15 K) stood at 0.793 ± 0.052; the activity coefficient (378.15 K) worked out at 0.801 ± 0.052.

Take `CC#N` [acetonitrile] + CCCCCCCCCCCC[N+](C)(C)CCOc1ccccc1.O=S(=O)([N-]S(=O)(=O)C(F)(F)F)C(F)(F)F: the activity coefficient (318.15 K) worked out at 0.473 ± 0.037; the activity coefficient (328.15 K) turned out to be 0.489 ± 0.037; the activity coefficient (338.15 K) turned out to be 0.506 ± 0.038; the activity coefficient (348.15 K) was 0.523 ± 0.039; the activity coefficient (358.15 K) is 0.539 ± 0.039; the activity coefficient (368.15 K) turned out to be 0.555 ± 0.04.

Take `c1ccccc1` [benzene] + CCCCCCCCCCCC[N+](C)(C)CCOc1ccccc1.N#C[N-]C#N: the activity coefficient by setting is: (328.15 K) 0.835 ± 0.054; (338.15 K) 0.87 ± 0.056; (348.15 K) 0.905 ± 0.057; (358.15 K) 0.938 ± 0.059; (368.15 K) 0.972 ± 0.061; (378.15 K) 1.01 ± 0.06.

Regarding `c1ccccc1` [benzene] + CCCCCCCCCCCC[N+](C)(C)CCOc1ccccc1.O=S(=O)([N-]S(=O)(=O)C(F)(F)F)C(F)(F)F, the activity coefficient turned out to be 0.569 ± 0.041 (318.15 K); 0.6 ± 0.042 (328.15 K); 0.629 ± 0.043 (338.15 K); 0.658 ± 0.045 (348.15 K); 0.687 ± 0.046 (358.15 K); 0.716 ± 0.048 (368.15 K).

On to `CCCCO` [butan-1-ol] + CCCCCCCCCCCC[N+](C)(C)CCOc1ccccc1.N#C[N-]C#N, for which the activity coefficient stood at 0.463 ± 0.036 (328.15 K); 0.473 ± 0.037 (338.15 K); 0.483 ± 0.037 (348.15 K); 0.494 ± 0.038 (358.15 K); 0.504 ± 0.038 (368.15 K); 0.514 ± 0.038 (378.15 K).

Regarding `CCCCO` [butan-1-ol] + CCCCCCCCCCCC[N+](C)(C)CCOc1ccccc1.O=S(=O)([N-]S(=O)(=O)C(F)(F)F)C(F)(F)F, the activity coefficient was determined as 1.38 ± 0.09 (318.15 K); 1.32 ± 0.09 (328.15 K); 1.28 ± 0.08 (338.15 K); 1.23 ± 0.08 (348.15 K); 1.19 ± 0.08 (358.15 K); 1.15 ± 0.07 (368.15 K).

For `CCC(C)O` (centres undefined) [butan-2-ol] + CCCCCCCCCCCC[N+](C)(C)CCOc1ccccc1.N#C[N-]C#N, the activity coefficient was determined as 0.495 ± 0.038 (328.15 K); 0.508 ± 0.038 (338.15 K); 0.522 ± 0.039 (348.15 K); 0.536 ± 0.039 (358.15 K); 0.55 ± 0.04 (368.15 K); 0.564 ± 0.041 (378.15 K).

For the compound `CCC(C)O` (centres undefined) [butan-2-ol] + CCCCCCCCCCCC[N+](C)(C)CCOc1ccccc1.O=S(=O)([N-]S(=O)(=O)C(F)(F)F)C(F)(F)F, the activity coefficient is, setting by setting: (318.15 K) 1.23 ± 0.08; (328.15 K) 1.2 ± 0.08; (338.15 K) 1.17 ± 0.07; (348.15 K) 1.15 ± 0.07; (358.15 K) 1.12 ± 0.07; (368.15 K) 1.1 ± 0.07.

Regarding `CCCC=O` [butanal] + CCCCCCCCCCCC[N+](C)(C)CCOc1ccccc1.N#C[N-]C#N, the activity coefficient is 0.766 ± 0.05 (328.15 K); 0.779 ± 0.051 (338.15 K); 0.79 ± 0.051 (348.15 K); 0.803 ± 0.052 (358.15 K); 0.816 ± 0.053 (368.15 K); 0.828 ± 0.053 (378.15 K).

On to `CCCC=O` [butanal] + CCCCCCCCCCCC[N+](C)(C)CCOc1ccccc1.O=S(=O)([N-]S(=O)(=O)C(F)(F)F)C(F)(F)F, for which the activity coefficient (318.15 K) came out at 0.711 ± 0.047; the activity coefficient (328.15 K) stood at 0.742 ± 0.049; the activity coefficient (338.15 K) was determined as 0.777 ± 0.051; the activity coefficient (348.15 K) worked out at 0.81 ± 0.052; the activity coefficient (358.15 K) turned out to be 0.844 ± 0.054; the activity coefficient (368.15 K) came out at 0.876 ± 0.056.

On to `C1CCCCCC1` [cycloheptane] + CCCCCCCCCCCC[N+](C)(C)CCOc1ccccc1.N#C[N-]C#N, for which the activity coefficient is, setting by setting: (328.15 K) 3.26 ± 0.22; (338.15 K) 3.29 ± 0.22; (348.15 K) 3.31 ± 0.23; (358.15 K) 3.34 ± 0.23; (368.15 K) 3.37 ± 0.23; (378.15 K) 3.39 ± 0.23.

In the case of `C1CCCCCC1` [cycloheptane] + CCCCCCCCCCCC[N+](C)(C)CCOc1ccccc1.O=S(=O)([N-]S(=O)(=O)C(F)(F)F)C(F)(F)F, the activity coefficient (318.15 K) is 2.26 ± 0.15; the activity coefficient (328.15 K) came to 2.3 ± 0.16; the activity coefficient (338.15 K) was 2.34 ± 0.16; the activity coefficient (348.15 K) amounted to 2.37 ± 0.16; the activity coefficient (358.15 K) was 2.4 ± 0.16; the activity coefficient (368.15 K) is 2.43 ± 0.17.

`C1CCCCC1` [cyclohexane] + CCCCCCCCCCCC[N+](C)(C)CCOc1ccccc1.N#C[N-]C#N: the activity coefficient is, setting by setting: (328.15 K) 3.15 ± 0.21; (338.15 K) 3.16 ± 0.22; (348.15 K) 3.18 ± 0.22; (358.15 K) 3.2 ± 0.22; (368.15 K) 3.22 ± 0.22; (378.15 K) 3.24 ± 0.22.

Turning to `C1CCCCC1` [cyclohexane] + CCCCCCCCCCCC[N+](C)(C)CCOc1ccccc1.O=S(=O)([N-]S(=O)(=O)C(F)(F)F)C(F)(F)F, the activity coefficient reads like this: (318.15 K) 2.02 ± 0.14; (328.15 K) 2.05 ± 0.14; (338.15 K) 2.08 ± 0.14; (348.15 K) 2.11 ± 0.14; (358.15 K) 2.13 ± 0.14; (368.15 K) 2.16 ± 0.15.

With `C1=CCCCC1` [cyclohexene] + CCCCCCCCCCCC[N+](C)(C)CCOc1ccccc1.N#C[N-]C#N, the activity coefficient (328.15 K) came out at 2.16 ± 0.15; the activity coefficient (338.15 K) came to 2.19 ± 0.15; the activity coefficient (348.15 K) stood at 2.22 ± 0.15; the activity coefficient (358.15 K) came out at 2.26 ± 0.15; the activity coefficient (368.15 K) came out at 2.29 ± 0.16; the activity coefficient (378.15 K) was found to be 2.31 ± 0.16.

Regarding `C1=CCCCC1` [cyclohexene] + CCCCCCCCCCCC[N+](C)(C)CCOc1ccccc1.O=S(=O)([N-]S(=O)(=O)C(F)(F)F)C(F)(F)F, the activity coefficient runs as follows: (318.15 K) 1.47 ± 0.1; (328.15 K) 1.52 ± 0.1; (338.15 K) 1.56 ± 0.1; (348.15 K) 1.61 ± 0.11; (358.15 K) 1.65 ± 0.11; (368.15 K) 1.69 ± 0.11.

In the case of `C1CCCCCCC1` [cyclooctane] + CCCCCCCCCCCC[N+](C)(C)CCOc1ccccc1.N#C[N-]C#N, the activity coefficient was 3.56 ± 0.24 (328.15 K); 3.63 ± 0.25 (338.15 K); 3.69 ± 0.25 (348.15 K); 3.72 ± 0.25 (358.15 K); 3.76 ± 0.26 (368.15 K); 3.79 ± 0.26 (378.15 K).

Source of the values: the NIST ThermoML archive (doi:10.1016/j.fluid.2018.09.024).
